# Experimental data: paper PMC10917667, “Targeted protein degradation via intramolecular bivalent glues” (Nature, 2024)
# Target: T1, BRD4 (BRD4^Tandem) (Homo sapiens, UniProt O60885)
# T1 construct: BRD4^Tandem (residues 43–459), BD1 and BD2 with native linker; with DCAF16–DDB1(ΔBPB)–DDA1
# Assay: cryo-EM ternary structure ([…] Å); alphaLISA displacement ([…] with DCAF16, […] alone); ITC; TR-FRET
# Format: binding
smiles,measurement,value
COC(=O)C[C@@H]1N=C(c2ccc(-c3ccc(C(=O)NCc4ccc(S(=O)(=O)Nc5ccc(C)c6c(C#N)c[nH]c56)cc4)cc3)cc2)c2c(sc(C)c2C)-n2c(C)nnc21 [IBG1],IC50,12.8 nM
